Experimental data: US12471596B2 (priority 2019, dated 2025)

Test system: Phytophthora infestans
Test: microbe, parasite or virus in culture
Format: cell-based
Conditions: in Secale cereale, 168 h, read-out: control compared to the untreated check

Row | SMILES | inhibition of growth at 30 ppm [%]
1 | O=C(COc1cc(C(F)(F)F)ncn1)N1CCC(c2nc(C3=NOC(c4c(Cl)cccc4C(F)(F)F)C3)cs2)CC1 (stereo not shown) [Compound 10, 1-(4-(4-(5-(2-chloro-6-(trifluoromethyl)phenyl)-4,5-dihydroisoxazol-3-yl)thiazol-2-yl)piperidin-1-yl)-2-((6-(trifluoromethyl)pyrimidin-4-yl)oxy)ethan-1-one] | ≥ 70
2 | COc1cncnc1OCC(=O)N1CCC(c2nc(C3=NOC(c4c(F)cccc4Br)C3)cs2)CC1 (stereo not shown) [Compound 78, 1-(4-(4-(5-(2-bromo-6-fluorophenyl)-4,5-dihydroisoxazol-3-yl)thiazol-2-yl)piperidin-1-yl)-2-((5-methoxypyrimidin-4-yl)oxy)ethan-1-one] | ≥ 70
3 | O=C(COc1cncc(C(F)(F)F)n1)N1CCC(c2nc(C3=NOC(c4c(F)cccc4Br)C3)cs2)CC1 (stereo not shown) [Compound 59, 1-(4-(4-(5-(2-bromo-6-fluorophenyl)-4,5-dihydroisoxazol-3-yl)thiazol-2-yl)piperidin-1-yl)-2-((6-(trifluoromethyl)pyrazin-2-yl)oxy)ethan-1-one] | ≥ 70
4 | CSc1nccnc1OCC(=O)N1CCC(c2nc(C3=NOC(c4c(Cl)cccc4Br)C3)cs2)CC1 (stereo not shown) [Compound 158, 1-(4-(4-(5-(2-bromo-6-chlorophenyl)-4,5-dihydroisoxazol-3-yl)thiazol-2-yl)piperidin-1-yl)-2-((3-(methylthio)pyrazin-2-yl)oxy)ethan-1-one] | ≥ 70
5 | N#Cc1nccc(OCC(=O)N2CCC(c3nc(C4=NOC(c5c(O)cccc5Cl)C4)cs3)CC2)n1 (stereo not shown) [Compound 95, 4-(2-(4-(4-(5-(2-chloro-6-hydroxyphenyl)-4,5-dihydroisoxazol-3-yl)thiazol-2-yl)piperidin-1-yl)-2-oxoethoxy)pyrimidine-2-carbonitrile] | ≥ 70
6 | COc1cncnc1OCC(=O)N1CCC(c2nc(C3=NOC(c4c(O)cccc4Cl)C3)cs2)CC1 (stereo not shown) [Compound 79, 1-(4-(4-(5-(2-chloro-6-hydroxyphenyl)-4,5-dihydroisoxazol-3-yl)thiazol-2-yl)piperidin-1-yl)-2-((5-methoxypyrimidin-4-yl)oxy)ethan-1-one] | ≥ 70
7 | O=C(CSc1ccc(C(F)(F)F)nn1)N1CCC(c2nc(C3=NOC(c4c(F)cccc4F)C3)cs2)CC1 (stereo not shown) [Compound 150, 1-(4-(4-(5-(2,6-difluorophenyl)-4,5-dihydroisoxazol-3-yl)thiazol-2-yl)piperidin-1-yl)-2-((6-(trifluoromethyl)pyridazin-3-yl)thio)ethan-1-one] | ≥ 70
8 | COc1cncc(OCC(=O)N2CCC(c3nc(C4=NOC(c5c(Cl)cccc5OS(C)(=O)=O)C4)cs3)CC2)n1 (stereo not shown) [Compound 103, 3-chloro-2-(3-(2-(1-(2-((6-methoxypyrazin-2-yl)oxy)acetyl)piperidin-4-yl)thiazol-4-yl)-4,5-dihydroisoxazol-5-yl)phenyl methanesulfonate] | ≥ 70
9 | COc1cncnc1OCC(=O)N1CCC(c2nc(C3=NOC(c4c(Cl)cccc4C#N)C3)cs2)CC1 (stereo not shown) [Compound 71, 3-chloro-2-(3-(2-(1-(2-((5-methoxypyrimidin-4-yl)oxy)acetyl)piperidin-4-yl)thiazol-4-yl)-4,5-dihydroisoxazol-5-yl)benzonitrile] | ≥ 70
10 | O=C(COc1nccc(C(F)(F)F)n1)N1CCC(c2nc(C3=NOC(c4c(F)cccc4Br)C3)cs2)CC1 (stereo not shown) [Compound 52, 1-(4-(4-(5-(2-bromo-6-fluorophenyl)-4,5-dihydroisoxazol-3-yl)thiazol-2-yl)piperidin-1-yl)-2-((4-(trifluoromethyl)pyrimidin-2-yl)oxy)ethan-1-one] | ≥ 70
11 | O=C(COc1cncc(C(F)(F)F)n1)N1CCC(c2nc(C3=NOC(c4c(Cl)ccc(F)c4F)C3)cs2)CC1 (stereo not shown) [Compound 61, 1-(4-(4-(5-(6-chloro-2,3-difluorophenyl)-4,5-dihydroisoxazol-3-yl)thiazol-2-yl)piperidin-1-yl)-2-((6-(trifluoromethyl)pyrazin-2-yl)oxy)ethan-1-one] | ≥ 70
12 | O=C(COc1nccnc1Cl)N1CCC(c2nc(C3=NOC(c4c(Cl)ccc(F)c4F)C3)cs2)CC1 (stereo not shown) [Compound 111, 1-(4-(4-(5-(6-chloro-2,3-difluorophenyl)-4,5-dihydroisoxazol-3-yl)thiazol-2-yl)piperidin-1-yl)-2-((3-chloropyrazin-2-yl)oxy)ethan-1-one] | ≥ 70
13 | COc1nccnc1OCC(=O)N1CCC(c2csc(C3=NOC(c4c(F)cccc4Cl)C3)n2)CC1 (stereo not shown) [Compound 97, 1-(4-(2-(5-(2-chloro-6-fluorophenyl)-4,5-dihydroisoxazol-3-yl)thiazol-4-yl)piperidin-1-yl)-2-((3-methoxypyrazin-2-yl)oxy)ethan-1-one] | ≥ 70
14 | O=C(COc1cncc(C(F)(F)F)n1)N1CCC(c2nc(C3=NOC(c4c(Cl)cccc4C(F)(F)F)C3)cs2)CC1 (stereo not shown) [Compound 68, 1-(4-(4-(5-(2-chloro-6-(trifluoromethyl)phenyl)-4,5-dihydroisoxazol-3-yl)thiazol-2-yl)piperidin-1-yl)-2-((6-(trifluoromethyl)pyrazin-2-yl)oxy)ethan-1-one] | ≥ 70
15 | COc1cncc(OCC(=O)N2CCC(c3nc(C4=NOC(c5c(F)cccc5Cl)C4)cs3)CC2)n1 (stereo not shown) [Compound 101, 1-(4-(4-(5-(2-chloro-6-fluorophenyl)-4,5-dihydroisoxazol-3-yl)thiazol-2-yl)piperidin-1-yl)-2-((6-methoxypyrazin-2-yl)oxy)ethan-1-one] | ≥ 70
16 | CSc1nccnc1OCC(=O)N1CCC(c2nc(C3=NOC(c4c(F)cccc4Cl)C3)cs2)CC1 (stereo not shown) [Compound 142, 1-(4-(4-(5-(2-chloro-6-fluorophenyl)-4,5-dihydroisoxazol-3-yl)thiazol-2-yl)piperidin-1-yl)-2-((3-(methylthio)pyrazin-2-yl)oxy)ethan-1-one] | ≥ 70
17 | COc1cncnc1OCC(=O)N1CCC(c2nc(C3=NOC(c4cc(Cl)ccc4Cl)C3)cs2)CC1 (stereo not shown) [Compound 77, 1-(4-(4-(5-(2,5-dichlorophenyl)-4,5-dihydroisoxazol-3-yl)thiazol-2-yl)piperidin-1-yl)-2-((5-methoxypyrimidin-4-yl)oxy)ethan-1-one] | ≥ 70
18 | COc1cncc(OCC(=O)N2CCC(c3nc(C4=NOC(c5c(Cl)cccc5C#N)C4)cs3)CC2)n1 (stereo not shown) [Compound 100, 3-chloro-2-(3-(2-(1-(2-((6-methoxypyrazin-2-yl)oxy)acetyl)piperidin-4-yl)thiazol-4-yl)-4,5-dihydroisoxazol-5-yl)benzonitrile] | ≥ 70
19 | O=C(COc1nccc(C(F)(F)F)n1)N1CCC(c2nc(C3=NOC(c4c(Cl)cc(Cl)cc4Cl)C3)cs2)CC1 (stereo not shown) [Compound 49, 1-(4-(4-(5-(2,4,6-trichlorophenyl)-4,5-dihydroisoxazol-3-yl)thiazol-2-yl)piperidin-1-yl)-2-((4-(trifluoromethyl)pyrimidin-2-yl)oxy)ethan-1-one] | ≥ 70
20 | N#Cc1cccc(Cl)c1C1CC(c2csc(C3CCN(C(=O)COc4cnc(C(F)(F)F)cn4)CC3)n2)=NO1 (stereo not shown) [Compound 93, 3-chloro-2-(3-(2-(1-(2-((5-(trifluoromethyl)pyrazin-2-yl)oxy)acetyl)piperidin-4-yl)thiazol-4-yl)-4,5-dihydroisoxazol-5-yl)benzonitrile] | ≥ 70
21 | O=C(COc1cc(C(F)(F)F)ncn1)N1CCC(c2nc(C3=NOC(c4c(F)cccc4F)C3)cs2)CC1 (stereo not shown) [Compound 12, 1-(4-(4-(5-(2,6-difluorophenyl)-4,5-dihydroisoxazol-3-yl)thiazol-2-yl)piperidin-1-yl)-2-((6-(trifluoromethyl)pyrimidin-4-yl)oxy)ethan-1-one] | ≥ 70
22 | O=C(COc1cncc(C(F)(F)F)n1)N1CCC(c2nc(C3=NOC(c4c(F)cccc4F)C3)cs2)CC1 (stereo not shown) [Compound 58, 1-(4-(4-(5-(2,6-difluorophenyl)-4,5-dihydroisoxazol-3-yl)thiazol-2-yl)piperidin-1-yl)-2-((6-(trifluoromethyl)pyrazin-2-yl)oxy)ethan-1-one] | ≥ 70
23 | CSc1nccnc1OCC(=O)N1CCC(c2nc(C3=NOC(c4c(F)cccc4F)C3)cs2)CC1 (stereo not shown) [Compound 140, 1-(4-(4-(5-(2,6-difluorophenyl)-4,5-dihydroisoxazol-3-yl)thiazol-2-yl)piperidin-1-yl)-2-((3-(methylthio)pyrazin-2-yl)oxy)ethan-1-one] | ≥ 70
24 | COc1ncc(OCC(=O)N2CCC(c3nc(C4=NOC(c5cc(Cl)ccc5Cl)C4)cs3)CC2)cn1 (stereo not shown) [Compound 135, 1-(4-(4-(5-(2,5-dichlorophenyl)-4,5-dihydroisoxazol-3-yl)thiazol-2-yl)piperidin-1-yl)-2-((2-methoxypyrimidin-5-yl)oxy)ethan-1-one] | ≥ 70
25 | O=C(CSc1ccc(C(F)(F)F)nn1)N1CCC(c2nc(C3=NOC(c4c(F)cccc4Br)C3)cs2)CC1 (stereo not shown) [Compound 151, 1-(4-(4-(5-(2-bromo-6-fluorophenyl)-4,5-dihydroisoxazol-3-yl)thiazol-2-yl)piperidin-1-yl)-2-((6-(trifluoromethyl)pyridazin-3-yl)thio)ethan-1-one] | ≥ 70
26 | CS(=O)(=O)c1nccnc1OCC(=O)N1CCC(c2nc(C3=NOC(c4c(F)cccc4F)C3)cs2)CC1 (stereo not shown) [Compound 157, 1-(4-(4-(5-(2,6-difluorophenyl)-4,5-dihydroisoxazol-3-yl)thiazol-2-yl)piperidin-1-yl)-2-((3-(methylsulfonyl)pyrazin-2-yl)oxy)ethan-1-one] | ≥ 70
27 | COc1cncc(OCC(=O)N2CCC(c3nc(C4=NOC(c5c(F)cccc5F)C4)cs3)CC2)n1 (stereo not shown) [Compound 119, 1-(4-(4-(5-(2,6-difluorophenyl)-4,5-dihydroisoxazol-3-yl)thiazol-2-yl)piperidin-1-yl)-2-((6-methoxypyrazin-2-yl)oxy)ethan-1-one] | ≥ 70
28 | O=C(COc1ccnc(C(F)(F)F)n1)N1CCC(c2nc(C3=NOC(c4c(Cl)cc(Cl)cc4Cl)C3)cs2)CC1 (stereo not shown) [Compound 19, 1-(4-(4-(5-(2,4,6-trichlorophenyl)-4,5-dihydroisoxazol-3-yl)thiazol-2-yl)piperidin-1-yl)-2-((2-(trifluoromethyl)pyrimidin-4-yl)oxy)ethan-1-one] | ≥ 70
